Reference: ChEMBL document CHEMBL5380795, “Design, Synthesis, and Bioactivity Investigation of Cyclic Lipopeptide Antibiotics Containing Eight to Nine Amino Acids” (J Med Chem, 2023)
≈ marks a conversion by molar mass, not a printed value. Calls of active or inactive are those of the source. The calls are words filed in the database; no cut-off is given here. Bridge positions count the residues as written; N and C are the ends. Square brackets hold non-standard residues; d marks the D form. Peptide text beside a SMILES is read from it. * marks the point of attachment. Decanoyl(3R-OH) = CCCCCCC[C@@H](O)CC(=O)*; dDab = NCC[C@@H](N)C(=O)O; Dab = NCC[C@H](N)C(=O)O

Tests used:
Escherichia coli [1] = test: Antibacterial activity against Escherichia coli NCTC 13353 assessed as inhibition of bacterial growth incubated for 18 to 24 hrs by broth microdilution method; format: functional; conditions: time 18-24 hrs
Escherichia coli [2] = test: Antibacterial activity against Escherichia coli clinical isolate 19-2 assessed as inhibition of bacterial growth incubated for 18 to 24 hrs by broth microdilution method; format: functional; conditions: time 18-24 hrs
Pseudomonas aeruginosa [3] = test: Antibacterial activity against Pseudomonas aeruginosa ATCC 27853 assessed as inhibition of bacterial growth incubated for 18 to 24 hrs by broth microdilution method; format: functional; conditions: time 18-24 hrs
Escherichia coli [4] = test: Antibacterial activity against Escherichia coli ATCC BAA-2523 assessed as inhibition of bacterial growth incubated for 18 to 24 hrs by broth microdilution method; format: functional; conditions: time 18-24 hrs
Pseudomonas aeruginosa [5] = test: Antibacterial activity against Pseudomonas aeruginosa clinical isolate 19-1 assessed as inhibition of bacterial growth incubated for 18 to 24 hrs by broth microdilution method; format: functional; conditions: time 18-24 hrs
Klebsiella pneumoniae [6] = test: Antibacterial activity against carbapenem resistant Klebsiella pneumoniae clinical isolate 19-15 assessed as inhibition of bacterial growth incubated for 18 to 24 hrs by broth microdilution method; format: functional; conditions: time 18-24 hrs
Klebsiella pneumoniae [7] = test: Antibacterial activity against carbapenem resistant Klebsiella pneumoniae clinical isolate 19-17 assessed as inhibition of bacterial growth incubated for 18 to 24 hrs by broth microdilution method; format: functional; conditions: time 18-24 hrs
Cell membrane = test: Induction of outer membrane permeabilization in Escherichia coli ATCC 25922 assessed as increase in fluorescence at 1 to 16 ug/ml measured after 3 mins by NPN-dye based assay; format: subcellular; conditions: dose 1-16 µg/ml
Acinetobacter baumannii [8] = test: Antibacterial activity against oxacillinase-27 producing Acinetobacter baumannii NCTC 13304 assessed as inhibition of bacterial growth incubated for 18 to 24 hrs by broth microdilution method; format: functional; conditions: time 18-24 hrs
[9] = tested on: Staphylococcus epidermidis; test: Antibacterial activity against methicillin resistant Staphylococcus epidermidis clinical isolate 19-6 assessed as inhibition of bacterial growth incubated for 18 to 24 hrs by broth microdilution method; format: functional; conditions: time 18-24 hrs
Pseudomonas aeruginosa [10] = test: Antibacterial activity against carbapenem resistant Pseudomonas aeruginosa clinical isolate 17-1 assessed as inhibition of bacterial growth incubated for 18 to 24 hrs by broth microdilution method; format: functional; conditions: time 18-24 hrs
Escherichia coli [11] = test: Antibacterial activity against KPC producing Escherichia coli ATCC BAA-2340 assessed as inhibition of bacterial growth incubated for 18 to 24 hrs by broth microdilution method; format: functional; conditions: time 18-24 hrs
[12] = tested on: Staphylococcus epidermidis; test: Antibacterial activity against methicillin resistant Staphylococcus epidermidis clinical isolate 19-5 assessed as inhibition of bacterial growth incubated for 18 to 24 hrs by broth microdilution method; format: functional; conditions: time 18-24 hrs
Staphylococcus aureus [13] = test: Antibacterial activity against Staphylococcus aureus ATCC 29213 assessed as inhibition of bacterial growth incubated for 18 to 24 hrs by broth microdilution method; format: functional; conditions: time 18-24 hrs
Escherichia coli [14] = test: Antibacterial activity against Escherichia coli ATCC 25922 assessed as inhibition of bacterial growth incubated for 18 to 24 hrs by broth microdilution method; format: functional; conditions: time 18-24 hrs
Klebsiella pneumoniae [15] = test: Antibacterial activity against KPC producing Klebsiella pneumoniae ATCC BAA-1705 assessed as inhibition of bacterial growth incubated for 18 to 24 hrs by broth microdilution method; format: functional; conditions: time 18-24 hrs
Candida albicans = test: Antifungal activity against Candida albicans; format: functional
Acinetobacter baumannii [16] = test: Antibacterial activity against carbapenem resistant Acinetobacter baumannii clinical isolate 19-8 assessed as inhibition of bacterial growth incubated for 18 to 24 hrs by broth microdilution method; format: functional; conditions: time 18-24 hrs
Pseudomonas aeruginosa [17] = test: Antibacterial activity against carbapenem resistant Pseudomonas aeruginosa clinical isolate 19-3 assessed as inhibition of bacterial growth incubated for 18 to 24 hrs by broth microdilution method; format: functional; conditions: time 18-24 hrs
[18] = tested on: Staphylococcus epidermidis; test: Antibacterial activity against Staphylococcus epidermidis; format: functional
Pseudomonas aeruginosa [19] = test: Antibacterial activity against Pseudomonas aeruginosa; format: functional
[20] = Plasma protein binding in human at 2 uM incubated for 6 hrs by equilibrium dialysis based LC-MS/MS analysis; format: ADME, cell-free; conditions: read-out: PPB (converted)
Escherichia coli [21] = test: Antibacterial activity against Escherichia coli; format: functional
Staphylococcus aureus [22] = test: Antibacterial activity against Staphylococcus aureus; format: functional
[23] = Selectivity index, ratio of IC50 for cytotoxicity against human HK-2 cells to MIC for antibacterial activity against Escherichia coli ATCC BAA-2523; format: toxicity, cell-based
Staphylococcus aureus [24] = test: Antibacterial activity against methicillin resistant Staphylococcus aureus ATCC 33591 assessed as inhibition of bacterial growth incubated for 18 to 24 hrs by broth microdilution method; format: functional; conditions: time 18-24 hrs
Klebsiella pneumoniae [25] = test: Antibacterial activity against Klebsiella pneumoniae; format: functional
[26] = Cytotoxicity against human HK-2 cells assessed as inhibition of cell growth incubated for 72 hrs by CCK-8 assay; format: toxicity, cell-based
Acinetobacter baumannii [27] = test: Antibacterial activity against Acinetobacter baumannii; format: functional

Row | Structure (SMILES) | MIC (Escherichia coli [1]) [µg/mL] | MIC (Escherichia coli [2]) [µg/mL] | MIC (Pseudomonas aeruginosa [3]) [µg/mL] | MIC (Escherichia coli [4]) [µg/mL] | MIC (Pseudomonas aeruginosa [5]) [µg/mL] | MIC (Klebsiella pneumoniae [6]) [µg/mL] | MIC (Klebsiella pneumoniae [7]) [µg/mL] | MIC (Acinetobacter baumannii [8]) [µg/mL] | MIC [9] [µg/mL] | MIC (Pseudomonas aeruginosa [10]) [µg/mL] | MIC (Escherichia coli [11]) [µg/mL] | MIC [12] [µg/mL] | MIC (Staphylococcus aureus [13]) [µg/mL] | MIC (Klebsiella pneumoniae [15]) [µg/mL] | MIC (Candida albicans) [µg/mL] | MIC (Acinetobacter baumannii [16]) [µg/mL] | MIC (Pseudomonas aeruginosa [17]) [µg/mL] | MIC [18] [µg/mL] | MIC (Pseudomonas aeruginosa [19]) [µg/mL] | MIC (Escherichia coli [21]) [µg/mL] | further results
1 | C[C@@H](O)[C@H]1C(=O)N2C(C(=O)O)=C(S[C@@H]3CN[C@H](C(=O)N(C)C)C3)[C@H](C)[C@H]12 [MEROPENEM] | < 0.06 | ≤ 0.06 | 1 (≈ 2.61 µM) | 0.25 (≈ 0.652 µM) | 0.5 (≈ 1.3 µM) | 64 (≈ 167 µM) | > 64 | 64 (≈ 167 µM) | 2 (≈ 5.22 µM) | 32 (≈ 83.4 µM) | 4 (≈ 10.4 µM) | 2 (≈ 5.22 µM) | 0.125 (≈ 0.326 µM) |  |  |  |  |  |  |  | Activity (Cell membrane): inactive; MIC (Escherichia coli [14]): 0.06 µg/mL (≈ 0.156 µM)
2 | CCCCCCC[C@@H](O)CC(=O)N[C@H](CCN)C(=O)N[C@H]1CCNC(=O)[C@H](CC(C)C)NC(=O)[C@H](CCN)NC(=O)[C@H](CCN)NC(=O)[C@H](CC(C)C)NC(=O)[C@@H](Cc2ccccc2)NC(=O)[C@H](CCN)NC1=O ({Decanoyl(3R-OH)}-[dDab][Dab][Dab][dF]L[Dab][Dab]L; lactam 2-C) | 8 (≈ 7.66 µM) | 16 (≈ 15.3 µM) | 2 (≈ 1.92 µM) | 8 (≈ 7.66 µM) | 2 (≈ 1.92 µM) | 8 (≈ 7.66 µM) | 8 (≈ 7.66 µM) | 8 (≈ 7.66 µM) | 4 (≈ 3.83 µM) | 2 (≈ 1.92 µM) | 2 (≈ 1.92 µM) | 2 (≈ 1.92 µM) | 16 (≈ 15.3 µM) | 8 (≈ 7.66 µM) | 4.7 (≈ 4.5 µM) | 4 (≈ 3.83 µM) | 4 (≈ 3.83 µM) | 0.6 (≈ 0.575 µM) | 0.4 (≈ 0.383 µM) | 0.1 (≈ 0.0958 µM) | fraction unbound at 6 h, 2 µM [20]: 0.0805; MIC (Staphylococcus aureus [22]): 3.1 µg/mL (≈ 2.97 µM); selectivity ratio [23]: 1.8; MIC (Staphylococcus aureus [24]): 16 µg/mL (≈ 15.3 µM); MIC (Klebsiella pneumoniae [25]): 0.78 µg/mL (≈ 0.747 µM); IC50 at 72 h [26]: 14.2 µg/mL (≈ 13.6 µM); MIC (Acinetobacter baumannii [27]): 4 µg/mL (≈ 3.83 µM)
3 | CCCCCCC[C@@H](O)CC(=O)N[C@H](CCN)C(=O)N[C@H]1CCNC(=O)[C@H](CC(C)C)NC(=O)[C@H](CCN)NC(=O)[C@H](CCN)NC(=O)[C@H](Cc2ccccc2)NC(=O)[C@@H](CC(C)C)NC(=O)[C@H](CCN)NC1=O | 16 (≈ 15.3 µM) | 16 (≈ 15.3 µM) | 2 (≈ 1.92 µM) | 8 (≈ 7.66 µM) | 4 (≈ 3.83 µM) | 16 (≈ 15.3 µM) | 16 (≈ 15.3 µM) | 8 (≈ 7.66 µM) | 8 (≈ 7.66 µM) | 2 (≈ 1.92 µM) | 8 (≈ 7.66 µM) | 2 (≈ 1.92 µM) | 32 (≈ 30.6 µM) | 8 (≈ 7.66 µM) | 4.7 (≈ 4.5 µM) | 4 (≈ 3.83 µM) | 4 (≈ 3.83 µM) | 0.6 (≈ 0.575 µM) | 0.4 (≈ 0.383 µM) | 0.1 (≈ 0.0958 µM) | MIC (Staphylococcus aureus [22]): 3.1 µg/mL (≈ 2.97 µM); selectivity ratio [23]: 2; MIC (Staphylococcus aureus [24]): 32 µg/mL (≈ 30.6 µM); MIC (Klebsiella pneumoniae [25]): 0.78 µg/mL (≈ 0.747 µM); IC50 at 72 h [26]: 16.1 µg/mL (≈ 15.4 µM); MIC (Acinetobacter baumannii [27]): 4 µg/mL (≈ 3.83 µM)
4 | CCCCCCC[C@@H](O)CC(=O)N[C@H](CCN)C(=O)N[C@H]1CCNC(=O)[C@H](CC(C)C)NC(=O)[C@H](CCN)NC(=O)[C@H](CCN)NC(=O)[C@H](CC(C)C)NC(=O)[C@@H](CC(C)C)NC(=O)[C@H](CCN)NC1=O | 16 (≈ 15.8 µM) | 16 (≈ 15.8 µM) | 1 (≈ 0.99 µM) | 16 (≈ 15.8 µM) | 2 (≈ 1.98 µM) | 16 (≈ 15.8 µM) | 16 (≈ 15.8 µM) | 8 (≈ 7.92 µM) | 16 (≈ 15.8 µM) | 2 (≈ 1.98 µM) | 8 (≈ 7.92 µM) | 2 (≈ 1.98 µM) | > 64 | 16 (≈ 15.8 µM) | 4.7 (≈ 4.65 µM) | 4 (≈ 3.96 µM) | 4 (≈ 3.96 µM) | 0.6 (≈ 0.594 µM) | 0.4 (≈ 0.396 µM) | 0.1 (≈ 0.099 µM) | fraction unbound at 6 h, 2 µM [20]: 0.0216; MIC (Staphylococcus aureus [22]): 3.1 µg/mL (≈ 3.07 µM); selectivity ratio [23]: 3.8; MIC (Staphylococcus aureus [24]): > 64 µg/mL; MIC (Klebsiella pneumoniae [25]): 0.78 µg/mL (≈ 0.772 µM); IC50 at 72 h [26]: 60.7 µg/mL (≈ 60.1 µM); MIC (Acinetobacter baumannii [27]): 4 µg/mL (≈ 3.96 µM)
